The text below walks through data of US20120100067A1, “Solubilisation Method” (MEDIGENE AG, priority 2008, published 2012).

Each structure is given as a SMILES string.

Data set [1] can be described thus: Solubilisation of Camptothecin by DOTAP/DOPC liposomes, UV/Vis at 369 nm. The data set is classed as physicochemical. To be noted: for concentration of solubilized Camptothecin: 10% trehalose. As for the experimental part: Treated and untreated liposomal formulations were exposed to Camptothecin as described for Paclitaxel in Example 2.1. The concentration of solubilized Camptothecin was determined by UV/Vis-spectroscopy (Beckmann DU 640, Beckmann Coulter, Germany) at 369 nm after dilution in methanol.

The conditions of data set [2]: cited from earlier work.
Data set [3] in a line: Solubilisation of dry Paclitaxel by empty liposomes, filtration, HPLC quantification.
Protocol: The Agilent 1100 Series HPLC System (Agilent Technologies, Palo Alto, Calif., USA) consisted of a quaternary pump, an autosampler, a column thermostat and an on-line degasser. A LiChrospher 60 RP (5 μm, 4×250 mm) analytical column (Merck, Darmstadt, Germany) was used. The flow rate of the mobile phase, consisting of 32% (v/v) acetonitrile, 12% tetrahydrofuran and 56% ammoniumacetat (2 mM in water, pH value set to 4.8 with acetic acid) was set at 1 ml/min.

As to `CC[C@@]1(O)C(=O)OCc2c1cc1n(c2=O)Cc2cc3ccccc3nc2-1` [Camptothecin], the “enhancement of concentration of solubilized agent, pre-treated versus untreated (factor)” value in data set [1] (DOTAP/DOPC 50/50 10 mM) is “factor of about three”. For the same compound, the “concentration of solubilized Camptothecin” value is 52 µM in data set [1] (pre-treated DOTAP/DOPC 50/50 10 mM) and 18 µM in data set [1] (untreated DOTAP/DOPC 50/50 10 mM).

Consider `CC(=O)O[C@H]1C(=O)[C@@]2(C)[C@H]([C@H](OC(=O)c3ccccc3)[C@]3(O)C[C@H](OC(=O)[C@H](O)[C@@H](NC(=O)c4ccccc4)c4ccccc4)C(C)=C1C3(C)C)[C@]1(OC(C)=O)CO[C@@H]1C[C@@H]2O` [Paclitaxel], for which, in data set [2] (aqueous buffer without liposomes), the “solubility of paclitaxel in a corresponding aqueous buffer” value was “below 1 μM”. The “solubility of paclitaxel in water” value in data set [2] (water) is given as “below 1 μg/ml”. Besides, the “expected amount of solubilised Paclitaxel” value in data set [3] (100 mM liposome preparation, freeze/thaw treated, extrapolated from solubilisation factor) was 4 mM. Also, in data set [3] (100% DOTAP and 100% DOPC liposomes, 10 mM), the “loading capacity of single-lipid liposomes after freezing/thawing” value was “improved”. Moreover, the “solubility of Paclitaxel in liposomal preparations versus liquid formulation without pre-treatment” value in data set [3] (DOTAP/DOPC 50/50 10 mM, spray dried, spray freeze-dried, freeze-dried, frozen) was “elevated”. Also, in data set [3] (DOTAP/DOPC 50/50, at a given lipid concentration), the “amount of solubilised Paclitaxel, freeze/thawed versus untreated (factor)” value was “about a factor of four higher”. Further, in data set [3] (DOTAP/DOPC 50/50 liposomes, 10-35 mM lipid, 10% trehalose, after freezing/thawing, 3 h), the “concentration of solubilised Paclitaxel (maximum obtained)” value is listed as “up to 1600 μM”. Also, the “loading capacity, treated versus untreated lipid dispersions (factor)” value in data set [3] (DOTAP/DOPC mixtures 25/75, 50/50, 75/25, 10 mM lipid, freeze/thaw) was “about a factor of four higher”. In addition, the “loading capacity of binary lipid mixtures after freeze/thawing” value in data set [3] (DOTAP/DOPC, DOTAP/DSPC, DSTAP/DSPC 50/50) is reported as “substantially improved”. Also, the “improvement of loading capacity, untreated versus treated liposomes (factor)” value in data set [3] (DOTAP/DSPC 50/50 liposomes, freeze/thaw) is listed as 5. Also, the “loading at 15 min incubation compared with 3 hour incubation” value in data set [3] (freeze-dried, rehydrated DOTAP/DOPC 50/50 liposomes) was “not lower”. For the same compound, the “solubilised concentration of Paclitaxel” value in data set [3] (per 1 mM of untreated DOTAP/DOPC) came to 10 µM.
